Laboratory results: patent US10912741B2, “Prevention of liver cancer with safranal-based formulations” (United Arab Emirates University, priority 2019, dated 2021)

Tests used:
[1] = tested on: IL-8 secretion by HepG2 cells; assay: IL-8 ELISA of supernatant of safranal-treated cells; format: cell-based, human; settings: as early as 6 hrs
Procedure: HepG2, were cultured in RPMI 1640 medium (HyClone, USA) and 1% of 100 U/ml penicillin and 100 ug/ml streptomycin (Sigma, USA) supplemented with 10% fetal bovine serum (Sigma, USA) at 37° C. in a humidified 5% CO2 atmosphere. Cells were sub-cultured each 4-6 days using trypsin 0.25% (Hyclone, USA).
In 100 mm plates, HepG2 cells were seeded at a density of 2×10^4 in complete growth medium. Cells were allowed to attach for 24 hours, after which complete growth medium was replaced by serum-free medium. Cells were treated with safranal at a concentration of 1 mM (20 mM stock). Plates were incubated for 6, 12, 24, and 48 hours in a humidified 5% CO2 atmosphere at 37° C. At indicated times, 1 mL of cell supernatant was obtained from each plate and was stored at −80° C. for further analysis by ELISA. After which whole cell lysates were prepared. Bicinchoninic acid (BCA) assay (Sigma-Aldrich, USA) was used to determine concentration of protein. Thirty μg of protein were loaded onto 10% SDS polyacrylamide electrophoresis gels. […]
Supernatant of safranal-treated cells were used to investigate the effect of safranal on IL-8 secretion level. […] Absorbance was recorded at 450 nm with background subtraction at 570 nm using a microplate reader (Biotek, Winooski, Vt., USA).

[2] = tested on: NF-kB-p65 nuclear localization; assay: NF-kB-p65 nuclear localization in nuclear extracts; format: in vivo, albino Wistar rats; settings: animal groups pre-treated with safranal (DEN-exposed)
Text: DEN, 2-AAF, 5, 5′-dithiobis-(2-nitrobenzoic acid thiobarbituric acid, Folin's reagent, pyrogallol, SOD enzyme, H2O2, and bovine albumin were obtained from Sigma Chemical Co. (St. Louis, Mo.). Nf-kB nuclear localization assay kit was purchased from (Ser. No. 10/007,889, Cayman Chemical Company, Ann Arbor, Mich., USA).
The experimental hepatocarcinogenesis model was developed according to a protocol by Espandiaria et al. that was adapted for our purposes. To initiate and promote hepatocarcinogenesis, diethylnitrosamine (DEN) and 2-acetylaminofluorene (2-AAF) were used, respectively. For hepatocarcinogenesis initiation in this model, a single DEN dose (200 mg/kg b.wt.) dissolved in saline was injected intraperitoneally. After initiation, all rats underwent one period of 5-days fasting, as mitotic proliferative stimuli. To promote hepatocarcinogenesis, 2-acetylaminofluorene (2-AAF) was introduced in the form of six daily intragastric doses (30 mg/kg in 1% Tween 80); two weeks after DEN treatment.
Safranal at doses of 25 mg/kg by weight (b.wt.) and 50 mg/kg b.wt, was administrated orally to rats. These doses have been reported to suppress chemically-induced oxidative damage in rats. A total of 40 adult male albino Wistar rats were randomly divided into […] (n=8) and were subjected to different treatments. […]

CC1=C(C=O)C(C)(C)CC=C1 [Safranal, 2,6,6-trimethylcyclohexa-1,3-diene-1-carbaldehyde]
IL-8 secretion [1]: dramatic decrease in IL-8 secretion | NF-kB-p65 level in nuclear extracts [2]: parallel decrease in NF-kB-p65 level in nuclear extracts
